Experimental data taken from patent publication US20150099709A1, “GHRELIN RECEPTOR AGONISTS FOR THE TREATMENT OF ACHLORHYDRIA” (RaQualia Pharma Inc., priority 2012, published 2015).

Test system: intra-gastric pH
Assay: Measurement of intra-gastric pH in dogs (gastric fistula, pH electrode)
Assay type: in vivo, dog
Settings: for change of intra-gastric pH value after dosing / time for which the low intra-gastric pH is maintained: dogs, orally, dose not given
Procedure: Male beagle dogs are used. A metallic cannula is placed in on the left side of the abdomen at the lowest part of the distal gastric corpus region near the greater curvature by a surgical operation. Intra-gastric pH is measured continuously by a flexible pH electrode inserted via the gastric fistula. Vehicle or drugs are administered orally to the dogs.
Compound A 3 mg/kg is orally administered to dogs in a similar way described in Example 1. Intra-gastric pH value is between 2 and 7 in the vehicle-treated conscious dogs.

**Q.** With `CN1N=C2CCN(C(=O)[C@@H](COCc3ccccc3)NC(=O)C(C)(C)N)C[C@@]2(Cc2ccccc2)C1=O` [Compound A, 2-amino-N-[2-(3a-(R)-benzyl-2-methyl-3-oxo-2,3,3a,4,6,7-hexahydropyrazolo[4,3-c]pyridin-5-yl)-1-(R)-benzyloxymethyl-2-oxo-ethyl]isobutyramide] as the compound, how does the “time for which the low intra-gastric pH value is maintained” value (male beagle dogs, 3 mg/kg orally) read?
**A.** Its value is “more than 3 hours”.

**Q.** What about the “intra-gastric pH value maintained after administration” value (male beagle dogs, 3 mg/kg orally, both dogs) of the same compound?
**A.** The value was “below 2.5”.

**Q.** And the “change of intra-gastric pH value after administration” value (male beagle dogs, 3 mg/kg orally, conscious, FIG. 2)?
**A.** Its value is “rapidly decreases after the administration”.

**Q.** `CC(C)(N)C(=O)N[C@H](COCc1ccc(F)cc1F)C(=O)N1CCC2=NN(CC(F)(F)F)C(=O)[C@]2(Cc2ccccn2)C1` [Compound B, 2-amino-N-[1-(R)-(2,4-difluoro-benzyloxymethyl)-2-oxo-2-(3-oxo-3a-(R)-pyridin-2-ylmethyl-2-(2,2,2-trifluoro-ethyl)-2,3,3a,4,6,7-hexahydropyrazolo[4,3-c]pyridin-5-yl)-ethyl]-2-methyl-propionamide] was tested. Which “change of intra-gastric pH value after dosing” value (“change … after dosing” below) did it give?
**A.** Its value is “decreases soon just after dosing”.

**Q.** What about the “time for which the low intra-gastric pH is maintained” value of the same compound?
**A.** The value was “more than 3 hours”.

**Q.** For `CN(C)N(C)C(=O)[C@@]1(Cc2ccccc2)CCCN(C(=O)[C@@H](Cc2c[nH]c3ccccc23)NC(=O)C(C)(C)N)C1` [Compound C], which “change … after dosing” value is on record?
**A.** The value was “decreases soon just after dosing”.

**Q.** What about the “time for which the low intra-gastric pH is maintained” value of the same compound?
**A.** Its value is “more than 3 hours”.

**Q.** With `CN(C(=O)/C=C/CC1(N)CCC1)[C@H](Cc1ccc(-c2ccccc2)cc1)C(=O)N(C)[C@H](Cc1ccccc1)C(=O)N1CCC(O)CC1` [Compound D, (E)-N—((R)-3-([1,1′-biphenyl]-4-yl)-1-(((R)-1-(4-hydroxypiperidin-1-yl)-1-oxo-3-phenylpropan-2-yl)(methyl)amino)-1-oxopropan-2-yl)-4-(1-aminocyclobutyl)-N-methylbut-2-enamide] as the compound, how does the “change … after dosing” value read?
**A.** The value was “decreases soon just after dosing”.

**Q.** And the “time for which the low intra-gastric pH is maintained” value?
**A.** The value was “more than 3 hours”.

**Q.** Which results are given for `C[C@@H]1CN[C@@H](C2CC2)C(=O)N(C)[C@H](C)C(=O)N[C@H](Cc2ccc(F)cc2)C(=O)NCCCc2ccccc2O1` [Compound E, (2R,5S,8R,11R)-5-cyclopropyl-11-(4-fluorobenzyl)-2,7,8-trimethyl-4,5,7,8,10,11,13,14,15,16-decahydro-2H-benzo[q][1,4,7,10,13]oxatetraazacyclooctadecine-6,9,12(3H)-trione]?
**A.** change of intra-gastric pH value after dosing: decreases soon just after dosing; time for which the low intra-gastric pH is maintained: more than 3 hours
